# Experimental data reported in paper PMC10916352, “Safety Evaluation of a Prototypical Diazirine-Based Covalent Crosslinker and Molecular Adhesive” (International Journal of Toxicology, 2023).
# Columns and labels:
# [1] = system: Balb/c 3T3 fibroblasts (clone 31); experiment: 3T3 Neutral Red uptake cytotoxicity and phototoxicity assay; settings: for Corrected Mean OD540: 8 wells
# Protocol: (§1) The 3T3 Neutral Red uptake assay was used to evaluate the phototoxicity of BondLynx. The NRU assay makes use of Neutral Red dye, a weak cationic dye that penetrates the cell membrane by non-ionic passive diffusion and accumulates in lysosomes. Cytotoxicity of the test material is evaluated by measuring the OD540 to assess the uptake of Neutral Red dye.[28],[29] […] By measuring cytotoxicity in the absence vs presence of UV and visible light, the phototoxicity of the test material can be determined.[30],[31]
# (§2) Cells were routinely trypsinized and passaged, at least once weekly, with a split ratio 1:3 to 1:4 to achieve a near confluent culture.
# (§3) Stock solutions of both controls were freshly prepared on the day of testing. The vehicle control was 1% DMSO in EBSS for the positive control, EBSS for the negative control, and .5% ethanol in EBSS for BondLynx. BondLynx was dissolved in ethanol for testing. […] All controls and BondLynx were handled in the dark and tested in 8-fold.
# (§4) In preparation for testing, cultures of 3T3 fibroblasts were trypsinized and resuspended in culture medium. […] A total of six plates were prepared in this manner – two each for the positive control, the negative control, and BondLynx. Following incubation, the cell culture medium was removed, and the wells washed with DPBS (Dulbecco’s phosphate-buffered saline). A 200 μL aliquot of each dilution of the test compound (BondLynx or a control) was added the first eight columns, and the appropriate vehicle control was added to the last four columns. All plates were incubated an additional 60 min before irradiating one plate for each test compound (+Irr) in a solar simulator with a WG320 nm filter for 22 min (equivalent to 5 J/cm^2 UV-A), while the second plate for each test compound (–Irr) was kept in the dark at room temperature. Subsequently, the test solutions were removed from the plates, and the cells were washed once with DPBS and suspended in 200 μL of supplemented DMEM to incubate for an additional 20-24 h.
# (§5) Immediately following incubation, the confluency of each plate was visually assessed, and the culture medium was replaced with 100 μL of Neutral Red dye (50 μg/mL). The plates were incubated another 3.5 h before removing the dye, washing with 150 μL of DPBS, and shaking for 20-40 min in 150 μL Neutral Red destain solution (ethanol:acetic acid:distilled water, 50:1:49). The optical density at 540 nm was measured for each well and corrected by subtracting the appropriate blank.
# [2] = as above; settings: mouse, Balb/c 3T3 fibroblasts (clone 31); for viability: Viability of cells over all tested concentrations, .316 to 1000 μg/mL
# Protocol: as §1, §2, §3, §4, §5
smiles,measurement,setting,value
"FC(F)(F)C1(c2ccc(C(c3ccc(C4(C(F)(F)F)N=N4)cc3)(C(F)(F)F)C(F)(F)F)cc2)N=N1 [BondLynx, 2,2-bis-[4-[3-(trifluoromethyl)-3H-diazirin-3-yl]phenyl]hexafluoropropane]",Phototoxicity classification,[1]; 3T3 NRU phototoxicity test,non-phototoxic
same,Corrected Mean OD540,"[1]; +Irr, 0.316 μg/mL",1.135
same,Corrected Mean OD540,"[1]; +Irr, 1 μg/mL",1.116
same,Corrected Mean OD540,"[1]; +Irr, 3.16 μg/mL",1.13
same,Corrected Mean OD540,"[1]; +Irr, 10 μg/mL",1.149
same,Corrected Mean OD540,"[1]; +Irr, 31.6 μg/mL",1.19
same,Corrected Mean OD540,"[1]; +Irr, 100 μg/mL",1.236
same,Corrected Mean OD540,"[1]; +Irr, 316 μg/mL",1.24
same,Corrected Mean OD540,"[1]; +Irr, 1000 μg/mL",1.18
same,"IC50 (50% inhibition of Neutral Red uptake), presence of irradiation","[1]; +Irr, 5 J/cm^2 UV-A",no IC50
same,Photo Irritation Factor (PIF),[1]; non-irradiated IC50 divided by irradiated IC50,no PIF could be calculated
same,Cytotoxicity,"[1]; presence and absence of UV-A, .316 to 1000 μg/mL",no cytotoxicity
same,"IC50 (50% inhibition of Neutral Red uptake), absence of irradiation",[1]; –Irr,no IC50
same,Corrected Mean OD540,"[1]; –Irr, 0.316 μg/mL",1.17
same,Corrected Mean OD540,"[1]; –Irr, 1 μg/mL",1.16
same,Corrected Mean OD540,"[1]; –Irr, 3.16 μg/mL",1.15
same,Corrected Mean OD540,"[1]; –Irr, 10 μg/mL",1.12
same,Corrected Mean OD540,"[1]; –Irr, 31.6 μg/mL",1.13
same,Corrected Mean OD540,"[1]; –Irr, 100 μg/mL",1.15
same,Corrected Mean OD540,"[1]; –Irr, 316 μg/mL",1.16
same,Corrected Mean OD540,"[1]; –Irr, 1000 μg/mL",1.07
same,"viability at 82 min, 0.316 μg/mL","[2]; Viability (%), +Irr",101%
same,"viability at 82 min, 1 μg/mL","[2]; Viability (%), +Irr",99.6%
same,"viability at 82 min, 3.16 μg/mL","[2]; Viability (%), +Irr",101%
same,"viability at 82 min, 10 μg/mL","[2]; Viability (%), +Irr",103%
same,"viability at 82 min, 31.6 μg/mL","[2]; Viability (%), +Irr",106%
same,viability at 100 μg/mL,"[2]; Viability (%), +Irr, 100 μg/mL",110%
same,"viability at 82 min, 316 μg/mL","[2]; Viability (%), +Irr",111%
same,"viability at 82 min, 1000 μg/mL","[2]; Viability (%), +Irr",105%
same,"viability at 82 min, 0.316 μg/mL","[2]; Viability (%), –Irr",102%
same,"viability at 82 min, 1 μg/mL","[2]; Viability (%), –Irr",101%
same,"viability at 82 min, 3.16 μg/mL","[2]; Viability (%), –Irr",100%
same,"viability at 82 min, 10 μg/mL","[2]; Viability (%), –Irr",97.4%
same,"viability at 82 min, 31.6 μg/mL","[2]; Viability (%), –Irr",98.3%
same,"viability at 82 min, 100 μg/mL","[2]; Viability (%), –Irr, 100 μg/mL",100%
same,"viability at 82 min, 316 μg/mL","[2]; Viability (%), –Irr",101%
same,"viability at 82 min, 1000 μg/mL","[2]; Viability (%), –Irr",93%
same,viability,[2]; Irr+,105 ± 4%
same,viability,[2]; Irr−,99 ± 3%
